Measurements reported in patent EP0265388A1, “Pyrrole derivatives, therapeutic compositions containing them and their use” (CIBA-GEIGY AG, priority 1986, dated 1988).

Legend:
[1] = Social conflict test after Jaekel (rank hierarchy); assay type: in vivo, Rhesusaffen
Text: Insbesondere konnten signifikante anxiolytische Effekte bei Verabreichung des Wirkstoffs in sozialen Konfliktsituationen bei Rhesusaffen festgestellt werden. Die experimentalle Grundlage für diesen Sozialkonflikt-Test analog J. Jaekel in Biologische Psychiatrie (Forschungsergebnisse), W. Kemp (Hrsg.), Springer Verlag, Heidelberg, 1986, ist die hierarchische Rangordnung bei Rhesusaffen. Der relative Rangstatus eines Tieres ist der bestimmende Faktor für interindividuelle Kommunikation, z.B. für Aggression oder wechselseitiges soziales Putzen. Normalerweise werden Tiere mit geringem Rangstatus von höher gestellten Grupenmitgliedern unterdrückt. Diese unterdrückten Tiere ziehen sich in eine soziale Isolierung zurück und vermeiden ängstlich jeden Sozialkontakt. Wiederholte Wirkstoffgaben in Dosen von 0,2 mg/kg p.o. bei Gruppen von 5 bzw. […] Diese Effekte werden als deutliche Anxiolyse angesehen.
Insbesondere konnten signifikante anxiolytische Effekte bei Verabreichung des Wirkstoffs in sozialen Konfliktsituationen bei Rhesusaffen im oben beschriebenen Sozialkonflikt-Test nach Jaekel festgestellt werden. […] Ebenso nahmen sie aktiv Kontakt auf und wurden zu Partnern beim Pflegen, obwohl sie vorher niemals Pflegepartner waren. Diese Effekte wurden sowohl bei Gruppen mit hohem Niveau an Sozialkontakten als auch bei Gruppen mit wenig Pflegepartnerschaften beobachtet. […] Wie zu erwarten wurde dieses ausgeprägte anxiolytische Profil bei den Standard-Beta-Rezeptoren-Blockern Oxprenolol nicht und bei Propanolol in weitaus geringerem Masse erst bei Beta-Rezeptoren blockierenden Dosierungen festgestellt. Dagegen weist das Racemat diesen Effekt in nicht ß-blockierend wirkenden Dosierungen auf.

[2] = tested on: präsynaptischen Serotonin-1 B-Rezeptors (5-HTIB); test: Antagonism at the presynaptic serotonin 1B receptor; details: for Selektivität (5-HT1B gegenüber 5-HT1A): compared with the racemate
[3] = Delayed-Matching-to-Sample test after Harlow, double-blind against placebo; assay type: in vivo, Rhesusaffen
Text: In Testmodellen an Rhesusaffen sowie an Ratten konnten weiterhin eine zusätzliche nootrope und antidepressive Wirkungskomponente festgestellt werden. […] F. Harlow et al., J. Comp. Physiol. Psychol. […] Dieser bedeutet diejenige Zeitverzögerung in Sekunden, nach der ein Affe einen Diskriminationserfolg von < 75 % hat. Weiterhin konnten die Vorzögerungszeiten für den Defizitbereich um durchschnittlich 20 Sekunden erhöht werden. Neben diesen nootropen Effekten konnten In diesem Test auch antidepressive Eigenschaften beobachtet werden. […] Die nootrope bzw. antidepressive Wirkungskomponente konnten ebenfalls bei Untersuchungen mit Ratten manifestiert werden. So wurden in einem komplizierten Tieflabyrinth analog dem Modell von J.B. Watson, Animal Education, Contrib. Psychol. Lab. Univ.

[4] = Three-centre double-blind study in inpatients; assay type: in vivo, Menschen
Text: Ueberraschend ist also die Tatsache, dass das anxiolytische Profil dieses Wirkstoffs auch bei nicht-betarezeptorenblockierend wirkenden Dosierungen sowohl im Tiermodell als auch am Menschen überaus ausgeprägt ist. Letzteres bestätigen Untersuchungen an stationären Patienten.
Entsprechendes ist bei der Verwendung des (+)-Enantiomeren zu erwarten.

[5] = tested on: stratialer Dopamin-Rezeptoren; test: In vivo 3H-spiperone binding screening model after Bischoff; design: species or system Ratten; details: rats
Text: Ferner bewirkt (+)-1-Isopropylamino-3-[o-(pyrrol-1-yl)-phenoxy]-2-propanol an Ratten Im Screening-Modell nach S. Bischoff et al., Europ.

[6] = Geller test (foot-shock induced conflict, lever pressing for food); assay type: in vivo, Ratten; details: for anxiolytische Wirkung im Geller-Test: overall assessment
Text: Das charakteristische anxiolytische Profil von (+)-1-Isopropylamino-3-[o-(pyrrol-1-yl)-phenoxy]-2-propanol ergibt sich beispielsweise aus den Ergebnissen des Geller-Testes, [J. Geller. Psychopharmacologia, 3, S. 374 ff. […] Bei diesem Test werden die Füsse der Verscuchstiere beim Bedienen eines Hebels zur Nahrungsfreigabe periodisch Elektroschocks ausgesetzt. Normalerweise wird nur bei Verabreichung von hohen Dosen an Anxiolytika die Reaktion auf die Bestrafung unterdrückt. Bei einer Gruppe von Ratten, die eine Dosis ab 3 mg/kg p.o. von (+)-1-lsopropylamino-3-[o-(pyrrol-1-yl)-phenoxy]-2-propanol erhalten haben, reagieren bereits ab etwa 80 % der Versuchstiere mit einem markanten Anstieg der Hebelbedienungshäufigkeit während der Schockphase.
Bei einer Gruppe von 29 Ratten, die eine Dosis von 20 mg/kg p.o. von 1-lsopropylamino-3-[o-(pyrrol-1-yl)-phenoxy]-2-propanol erhalten haben, reagieren bereits 50 % der Versuchstiere mit einem markanten Anstieg der Hebelbedienungshäufigkeit während der Schockphase, wobei der Anstieg bei einzelnen Tieren 300 % betrug.

[7] = Complicated deep maze after Watson; assay type: in vivo, Ratten
Text: In Testmodellen an Rhesusaffen sowie an Ratten konnten weiterhin eine zusätzliche nootrope und antidepressive Wirkungskomponente festgestellt werden. So bewirkte (+)-1-isopropylamino-3-[o-(pyrrol-1-yl)-phenoxy]-2-propanol in einer Doppelblindstudie bei Rhesusaffen gegen Placebo im "Delayed-Matchingto-Sample-Test" (Zeit-verzögerte-Wahl-nach-Muster) gemäss der Methodik von H. F. Harlow et al., J. Comp. Physiol. Psychol. […] Dieser bedeutet diejenige Zeitverzögerung in Sekunden, nach der ein Affe einen Diskriminationserfolg von < 75 % hat. Weiterhin konnten die Vorzögerungszeiten für den Defizitbereich um durchschnittlich 20 Sekunden erhöht werden. Neben diesen nootropen Effekten konnten In diesem Test auch antidepressive Eigenschaften beobachtet werden. […] Die nootrope bzw. antidepressive Wirkungskomponente konnten ebenfalls bei Untersuchungen mit Ratten manifestiert werden. So wurden in einem komplizierten Tieflabyrinth analog dem Modell von J.B. Watson, Animal Education, Contrib. Psychol. Lab. Univ.

[8] = Inhibition of hyperactivity of rats kept in isolation (locomotor and exploratory behaviour, after Weinstock); assay type: in vivo, Ratten; details: isolated rats
Procedure: Das charakterische anxiolytische Profil von 1-Isopropylamino-3-[o-(pyrrol-1-yl)-phenoxyj-2-propanol ergibt sich beispielsweise aus der Hemmung der Hyperaktivität von Ratten, die in Isolation gehalten werden, gemessen an ihrem lokomotorischen und exploratorischen Verhalten, wobei maximale Effekte bei einer Dosierung von 0,01-0,1 mg/kg p.o. erzielt werden [analog der Methodik von R. Weinstock et al., Psychopharmacologia 30, 241ff. (1973). Die Hyperaktivität von isoliert gehaltenen Ratten konnte dagegen im Falle des Propranolols erste bei einer Dosis von 0,3 mg/kg p.o. maximal gehemmt werden.

[9] = repeated doses of 0,2 mg/kg p.o., groups of 5 or 7 monkeys
[10] = repeated doses of 0,1-0,3 mg/kg p.o., groups of 7 monkeys

C=CCOc1ccccc1OCC(O)CNC(C)C (stereo not shown) [Oxprenolol, reference compound]
Sozialkontakte von Affen mit geringer Rangordnung ([1]; 0,3-3,0 mg/kg p.o.): keine Steigerung der Sozialkontakte | Selektivität (5-HT1B gegenüber 5-HT1A) [2]: weniger selektiv

CC(C)NCC(O)COc1ccccc1-n1cccc1 (single isomer, unassigned; (+)) [(+)-1-Isopropylamino-3-[o-(pyrrol-1-yl)-phenoxy]-2-propanol]
Sozialkontakte der rangniedrigsten Affen [1, 9]: nahmen sie aktiv soziale Kontakte auf | ängstliches Verhaltensmuster der Affen, die in der Rangordnung am niedrigsten eingeordnet sind [1, 9]: signifikanten Reduktion | Erfolgsrate im Defizitbereich ([3]; 1 mg/kg p.o., against placebo, deficit range = delay after which discrimination success is < 75 %): signifikant erhöhte Erfolgsrate | Motivation und Antrieb (antidepressive Eigenschaften) ([3]; rhesus monkeys): deutliche Motivations-und Antriebssteigerungen | Erhöhung der Vorzögerungszeiten für den Defizitbereich ([3]; rhesus monkeys, average increase): 20 Sekunden | cardiovaskuläre Effekte (ß-Blockade) ([4]; expected for the (+)-enantiomer, not tested): Entsprechendes | ^3H-Splperon-Bindung stratialer Dopamin-Rezeptoren [5]: dosisabhängig Erhöhungen | Versuchstiere mit einem markanten Anstieg der Hebelbedienungshäufigkeit während der Schockphase ([6]; rats, dose from 3 mg/kg p.o.): ~80% | anxiolytische Wirkung im Geller-Test ([6]; rats): starkes Anxiolytikum | Orientierungsleistungen (Fehlerquote; nootrope Wirkung) ([7]; rats): deutliche Verbesserung der Orientierungsleistungen | Laufzeiten vom Start zum belohnten Ziel ([7]; rats, compared with placebo animals): signifikant verkürzten Laufzeiten

CC(C)NCC(O)COc1ccccc1-n1cccc1 (racemic) [1-Isopropylamino-3-[o-(pyrrol-1-yl)-phenoxy]-2-propanol]
Dosierung, bei der maximale Effekte (Hemmung der Hyperaktivität) erzielt werden [8]: 0,01-0,1 mg/kg p.o. | Sozialkontakte der rangniedrigsten Affen [1, 10]: Zunahme der Sozialkontakte | ängstliches Verhaltensmuster der Affen, die in der Rangordnung am niedrigsten eingeordnet sind [1, 10]: signifikanten Reduktion des ängstlichen Verhaltensmuster | nootrope und antidepressive Eigenschaften ([3]; racemate, at the doses used): keine aussagefähigen Beobachtungen | cardiovaskuläre Effekte (ß-Blockade) ([4]; humans, low daily doses such as 2 mg and 4 mg p.o.): keine cardiovaskulären Effekte | anxiolytische Effekte ([4]; more than 100 inpatients, daily dose 2 mg p.o. compared with daily dose 4 mg p.o.): signifikante, mindestens ebenso potente anxiolytische Effekte | Versuchstiere mit einem markanten Anstieg der Hebelbedienungshäufigkeit während der Schockphase ([6]; group of 29 rats, 20 mg/kg p.o.): 50% | Anstieg der Hebelbedienungshäufigkeit bei einzelnen Tieren ([6]; rats, 20 mg/kg p.o., shock phase): 300% | anxiolytische Wirkung im Geller-Test ([6]; rats): starkes Anxiolytikum | nootrope und antidepressive Eigenschaften ([7]; racemate, at the doses used): keine aussagefähigen Beobachtungen | Antagonismus am präsynaptischen Serotonin-1 B-Rezeptor [2]: potenter selektiver Antagonist

CC(C)NCC(O)COc1cccc2ccccc12 (stereo not shown) [Propranolol, reference compound]
Dosierung, bei der maximale Effekte (Hemmung der Hyperaktivität) erzielt werden [8]: 0,3 mg/kg p.o. | Sozialkontakte der Rhesusaffen mit niedrigem Rangstatus ([1]; 0,5-10,0 mg/kg p.o.): relativ wenig beeinflusst | Verhaltensänderung im Fussschocktest ([6]; rats, 20 mg/kg p.o.): keiner signifikanten Verhaltensänderung | Selektivität (5-HT1B gegenüber 5-HT1A) [2]: weniger selektiv
